The record followed here is ChEMBL document CHEMBL5465560, “Selectivity Literature for EUbOPEN Chemogenomic Library” (2024).

The target of assay [1] is Casein kinase I isoform delta (Homo sapiens, UniProt P48730). Briefly: Selectivity interaction (Kinase panel (Z-LYTE Assay)) EUB0001632a CSNK1D. To be noted: at 10 µM.
In assay [2] the target is Serine/threonine-protein kinase MRCK beta (Homo sapiens) (UniProt Q9Y5S2). In words: Selectivity interaction (KinomeScan (DiscoverX)) EUB0001619a CDC42BPB. To be noted: at 1 µM.
Assay [3] has as its target Vascular endothelial growth factor receptor 2 (Homo sapiens, UniProt P35968). In words: Selectivity interaction (KinomeScan (DiscoverX)) EUB0000699a KDR. To be noted: at 10 µM.
The subject of assay [4] is Fibroblast growth factor receptor 3 (Homo sapiens), P22607 [G697C]. Briefly: (§1) Selectivity interaction (KinomeScan (DiscoverX)) EUB0000045b FGFR3.
Assay [5] concerns the target Fibroblast growth factor receptor 3 (Homo sapiens, UniProt P22607). Described as §1.
Assay [6] concerns the target T1, Homeodomain-interacting protein kinase 4 (Homo sapiens) (UniProt Q8NE63).
T1 sequence (whole entry): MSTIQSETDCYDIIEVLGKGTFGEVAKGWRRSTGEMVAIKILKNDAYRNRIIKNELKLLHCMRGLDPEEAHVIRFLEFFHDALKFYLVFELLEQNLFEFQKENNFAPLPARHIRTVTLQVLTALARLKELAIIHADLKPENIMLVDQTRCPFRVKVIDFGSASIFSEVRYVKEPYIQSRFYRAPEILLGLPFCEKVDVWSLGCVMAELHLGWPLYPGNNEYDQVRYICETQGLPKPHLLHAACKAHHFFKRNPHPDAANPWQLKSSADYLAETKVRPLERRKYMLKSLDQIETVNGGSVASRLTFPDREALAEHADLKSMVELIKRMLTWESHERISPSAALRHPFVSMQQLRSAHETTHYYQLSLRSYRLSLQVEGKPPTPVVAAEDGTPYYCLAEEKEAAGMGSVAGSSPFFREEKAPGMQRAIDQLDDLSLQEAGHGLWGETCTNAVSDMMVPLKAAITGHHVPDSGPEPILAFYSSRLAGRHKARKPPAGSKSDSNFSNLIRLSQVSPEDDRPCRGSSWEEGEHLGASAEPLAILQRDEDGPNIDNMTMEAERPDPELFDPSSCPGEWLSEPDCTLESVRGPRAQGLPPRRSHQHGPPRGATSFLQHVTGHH
In words: Selectivity interaction (ProQinase) EUB0000171b HIPK4.

The target in assay [7] is Tyrosine-protein kinase BTK (Homo sapiens, UniProt Q06187). Briefly: Selectivity interaction (KinomeScan (DiscoverX)) EUB0001049a BTK. To be noted: at 1 µM.
Assay [8] addresses Ribosomal protein S6 kinase alpha-1 (Homo sapiens, UniProt Q15418). In words: Selectivity interaction (Upstate Kinase Profiler service (Millipore)) EUB0000056c RPS6KA1. The note with it: at 1 µM.
Assay [9] concerns the target Casein kinase II subunit alpha (Homo sapiens, UniProt P68400). Briefly: Selectivity interaction (KinomeScan (DiscoverX)) EUB0000655a CSNK2A1. To be noted: at 10 µM.
Assay [10] concerns the target T2, Phosphatidylinositol 4,5-bisphosphate 3-kinase catalytic subunit delta isoform (Homo sapiens) (UniProt O00329).
T2 sequence (whole entry): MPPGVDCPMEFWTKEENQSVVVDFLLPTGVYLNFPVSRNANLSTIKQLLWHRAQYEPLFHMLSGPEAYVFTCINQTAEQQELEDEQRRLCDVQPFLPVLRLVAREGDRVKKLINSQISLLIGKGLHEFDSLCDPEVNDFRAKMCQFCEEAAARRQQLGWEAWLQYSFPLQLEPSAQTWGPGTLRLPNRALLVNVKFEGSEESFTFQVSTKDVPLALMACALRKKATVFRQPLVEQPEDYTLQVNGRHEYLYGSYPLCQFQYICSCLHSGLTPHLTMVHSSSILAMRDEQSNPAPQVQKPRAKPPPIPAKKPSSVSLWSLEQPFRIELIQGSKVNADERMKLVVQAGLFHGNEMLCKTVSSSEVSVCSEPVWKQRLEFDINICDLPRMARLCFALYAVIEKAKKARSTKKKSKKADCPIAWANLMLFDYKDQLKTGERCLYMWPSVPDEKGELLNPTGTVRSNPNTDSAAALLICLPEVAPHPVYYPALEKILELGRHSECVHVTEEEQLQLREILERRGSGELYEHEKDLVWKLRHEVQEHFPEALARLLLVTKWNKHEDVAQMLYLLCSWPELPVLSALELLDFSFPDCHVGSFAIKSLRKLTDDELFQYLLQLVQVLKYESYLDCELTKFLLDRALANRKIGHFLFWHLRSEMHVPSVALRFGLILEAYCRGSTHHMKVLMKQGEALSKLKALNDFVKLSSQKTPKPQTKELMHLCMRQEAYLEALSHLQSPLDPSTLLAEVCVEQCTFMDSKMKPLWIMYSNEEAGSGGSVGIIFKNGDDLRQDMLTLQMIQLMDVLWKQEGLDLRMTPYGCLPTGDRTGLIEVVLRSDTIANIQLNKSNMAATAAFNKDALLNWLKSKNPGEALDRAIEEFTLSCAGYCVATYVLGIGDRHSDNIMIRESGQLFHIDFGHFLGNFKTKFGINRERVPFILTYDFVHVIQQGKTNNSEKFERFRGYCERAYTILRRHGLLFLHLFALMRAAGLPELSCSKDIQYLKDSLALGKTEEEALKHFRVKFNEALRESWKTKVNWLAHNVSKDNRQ
In words: Selectivity interaction (KinomeScan (DiscoverX)) EUB0000229b PIK3CD. To be noted: at 10 µM.

Sequence of Fibroblast growth factor receptor 3 (Homo sapiens), P22607 [G697C] (P22607 whole entry G697C): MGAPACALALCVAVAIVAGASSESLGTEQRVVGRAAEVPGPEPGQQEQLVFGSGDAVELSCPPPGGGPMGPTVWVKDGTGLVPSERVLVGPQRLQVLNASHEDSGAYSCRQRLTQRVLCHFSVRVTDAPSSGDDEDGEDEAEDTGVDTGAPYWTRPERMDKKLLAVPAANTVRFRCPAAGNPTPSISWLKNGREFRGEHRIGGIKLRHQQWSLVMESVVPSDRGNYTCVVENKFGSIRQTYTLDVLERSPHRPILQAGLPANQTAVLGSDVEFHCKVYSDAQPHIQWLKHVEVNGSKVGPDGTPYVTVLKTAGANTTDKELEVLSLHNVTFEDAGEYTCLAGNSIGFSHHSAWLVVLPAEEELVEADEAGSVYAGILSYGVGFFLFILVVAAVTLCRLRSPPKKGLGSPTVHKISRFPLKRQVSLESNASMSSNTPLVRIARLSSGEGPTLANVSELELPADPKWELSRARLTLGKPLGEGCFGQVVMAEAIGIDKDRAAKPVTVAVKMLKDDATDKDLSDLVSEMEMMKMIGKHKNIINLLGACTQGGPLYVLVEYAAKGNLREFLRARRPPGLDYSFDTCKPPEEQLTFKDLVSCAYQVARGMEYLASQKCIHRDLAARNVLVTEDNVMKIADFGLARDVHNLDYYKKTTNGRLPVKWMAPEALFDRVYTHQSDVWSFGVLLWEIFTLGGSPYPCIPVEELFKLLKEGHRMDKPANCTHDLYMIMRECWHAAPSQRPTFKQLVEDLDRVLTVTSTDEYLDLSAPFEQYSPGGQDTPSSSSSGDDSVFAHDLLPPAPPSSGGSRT
Sequence of Fibroblast growth factor receptor 3 (P22607 23-806 limits assumed): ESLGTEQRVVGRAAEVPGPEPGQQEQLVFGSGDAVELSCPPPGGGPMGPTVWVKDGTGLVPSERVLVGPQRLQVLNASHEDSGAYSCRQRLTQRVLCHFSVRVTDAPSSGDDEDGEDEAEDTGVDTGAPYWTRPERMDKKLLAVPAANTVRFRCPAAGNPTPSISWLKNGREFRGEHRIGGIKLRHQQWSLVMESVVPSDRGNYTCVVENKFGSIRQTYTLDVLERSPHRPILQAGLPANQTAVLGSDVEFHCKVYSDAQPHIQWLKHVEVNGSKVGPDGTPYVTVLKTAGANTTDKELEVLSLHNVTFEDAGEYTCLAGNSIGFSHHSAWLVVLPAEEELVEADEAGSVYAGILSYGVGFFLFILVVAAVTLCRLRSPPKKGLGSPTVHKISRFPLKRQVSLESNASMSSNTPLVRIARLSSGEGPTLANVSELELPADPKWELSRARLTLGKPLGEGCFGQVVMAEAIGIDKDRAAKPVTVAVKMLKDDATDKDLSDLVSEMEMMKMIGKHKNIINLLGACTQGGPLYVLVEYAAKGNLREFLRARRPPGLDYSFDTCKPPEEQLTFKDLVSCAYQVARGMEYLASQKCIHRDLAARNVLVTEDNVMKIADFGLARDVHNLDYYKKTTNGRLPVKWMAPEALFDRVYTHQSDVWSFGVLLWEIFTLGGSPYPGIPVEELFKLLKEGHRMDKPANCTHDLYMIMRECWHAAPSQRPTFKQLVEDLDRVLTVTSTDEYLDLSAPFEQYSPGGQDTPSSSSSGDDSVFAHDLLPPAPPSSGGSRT
Sequence of Casein kinase II subunit alpha (P68400 whole entry, looked up, canonical isoform): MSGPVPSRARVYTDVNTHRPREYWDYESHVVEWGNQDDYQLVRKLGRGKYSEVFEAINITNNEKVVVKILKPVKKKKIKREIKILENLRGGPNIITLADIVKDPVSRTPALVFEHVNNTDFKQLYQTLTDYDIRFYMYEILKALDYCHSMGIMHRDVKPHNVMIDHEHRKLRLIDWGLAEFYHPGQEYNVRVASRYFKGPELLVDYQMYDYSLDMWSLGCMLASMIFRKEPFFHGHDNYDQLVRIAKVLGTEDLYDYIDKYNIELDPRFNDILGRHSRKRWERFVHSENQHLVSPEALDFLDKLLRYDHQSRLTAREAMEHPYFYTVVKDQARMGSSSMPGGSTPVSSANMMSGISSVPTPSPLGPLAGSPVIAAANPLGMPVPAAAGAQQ
Sequence of Casein kinase I isoform delta (P48730 whole entry, looked up, canonical isoform): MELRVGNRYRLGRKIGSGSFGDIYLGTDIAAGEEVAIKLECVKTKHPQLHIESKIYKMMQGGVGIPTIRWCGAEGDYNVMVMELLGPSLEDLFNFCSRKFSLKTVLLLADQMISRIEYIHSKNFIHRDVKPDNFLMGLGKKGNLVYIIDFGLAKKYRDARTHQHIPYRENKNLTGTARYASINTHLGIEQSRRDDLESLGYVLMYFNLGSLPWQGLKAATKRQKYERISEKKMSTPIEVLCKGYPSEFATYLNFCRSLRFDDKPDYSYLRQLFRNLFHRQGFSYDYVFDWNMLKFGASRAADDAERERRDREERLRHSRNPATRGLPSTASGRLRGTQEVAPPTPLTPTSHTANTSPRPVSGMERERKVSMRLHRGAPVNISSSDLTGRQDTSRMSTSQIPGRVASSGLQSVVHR
Sequence of Vascular endothelial growth factor receptor 2 (P35968 whole entry): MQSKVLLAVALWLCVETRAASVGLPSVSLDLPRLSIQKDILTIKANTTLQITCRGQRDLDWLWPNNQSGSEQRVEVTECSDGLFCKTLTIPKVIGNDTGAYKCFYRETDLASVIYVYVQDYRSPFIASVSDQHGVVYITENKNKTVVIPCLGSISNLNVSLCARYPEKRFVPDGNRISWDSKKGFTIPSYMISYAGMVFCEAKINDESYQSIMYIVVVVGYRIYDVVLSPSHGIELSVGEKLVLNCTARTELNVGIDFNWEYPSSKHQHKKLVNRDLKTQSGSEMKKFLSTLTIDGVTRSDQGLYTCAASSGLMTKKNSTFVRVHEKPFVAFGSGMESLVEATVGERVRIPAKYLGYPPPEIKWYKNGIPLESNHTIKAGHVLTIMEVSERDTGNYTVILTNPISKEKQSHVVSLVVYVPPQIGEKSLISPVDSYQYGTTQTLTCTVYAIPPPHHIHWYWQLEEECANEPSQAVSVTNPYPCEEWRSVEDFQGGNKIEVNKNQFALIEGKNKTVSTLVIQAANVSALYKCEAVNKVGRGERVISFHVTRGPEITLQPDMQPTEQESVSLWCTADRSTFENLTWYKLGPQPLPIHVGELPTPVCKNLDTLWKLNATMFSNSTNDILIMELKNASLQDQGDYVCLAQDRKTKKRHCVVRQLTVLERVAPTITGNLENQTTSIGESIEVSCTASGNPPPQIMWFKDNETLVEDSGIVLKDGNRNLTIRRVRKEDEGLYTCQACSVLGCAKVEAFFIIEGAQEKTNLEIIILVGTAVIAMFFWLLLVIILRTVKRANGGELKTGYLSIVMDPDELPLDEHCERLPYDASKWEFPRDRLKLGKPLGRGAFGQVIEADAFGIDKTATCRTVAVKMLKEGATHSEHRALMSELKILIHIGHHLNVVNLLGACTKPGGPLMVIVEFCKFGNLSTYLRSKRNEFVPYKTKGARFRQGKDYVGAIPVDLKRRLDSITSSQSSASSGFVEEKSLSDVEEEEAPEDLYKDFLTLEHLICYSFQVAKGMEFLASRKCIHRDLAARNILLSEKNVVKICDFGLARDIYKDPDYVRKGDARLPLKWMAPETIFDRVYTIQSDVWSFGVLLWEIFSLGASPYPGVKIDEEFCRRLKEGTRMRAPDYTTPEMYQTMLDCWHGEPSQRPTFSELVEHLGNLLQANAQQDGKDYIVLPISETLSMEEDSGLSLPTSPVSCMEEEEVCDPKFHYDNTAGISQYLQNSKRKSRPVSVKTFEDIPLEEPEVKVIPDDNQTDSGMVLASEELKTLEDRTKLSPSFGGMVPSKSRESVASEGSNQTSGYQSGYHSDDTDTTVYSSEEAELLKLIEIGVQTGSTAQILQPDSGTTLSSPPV
Sequence of Tyrosine-protein kinase BTK (Q06187 whole entry): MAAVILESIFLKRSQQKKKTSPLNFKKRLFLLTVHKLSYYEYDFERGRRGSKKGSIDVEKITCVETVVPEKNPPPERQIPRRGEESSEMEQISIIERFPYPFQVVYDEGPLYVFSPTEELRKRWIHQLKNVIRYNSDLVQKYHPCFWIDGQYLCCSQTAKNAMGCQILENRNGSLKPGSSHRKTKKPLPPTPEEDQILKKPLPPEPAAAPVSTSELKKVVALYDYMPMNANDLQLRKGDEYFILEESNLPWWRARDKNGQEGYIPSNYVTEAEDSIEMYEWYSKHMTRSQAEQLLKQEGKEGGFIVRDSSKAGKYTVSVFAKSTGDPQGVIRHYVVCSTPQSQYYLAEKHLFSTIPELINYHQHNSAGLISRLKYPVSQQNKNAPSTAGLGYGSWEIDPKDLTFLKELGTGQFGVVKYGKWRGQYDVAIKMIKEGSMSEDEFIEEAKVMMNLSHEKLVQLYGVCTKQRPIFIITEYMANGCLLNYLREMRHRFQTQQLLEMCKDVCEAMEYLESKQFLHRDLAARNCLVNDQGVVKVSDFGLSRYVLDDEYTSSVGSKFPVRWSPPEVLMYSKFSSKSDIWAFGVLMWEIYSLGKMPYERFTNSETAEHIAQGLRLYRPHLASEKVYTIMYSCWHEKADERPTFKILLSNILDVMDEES

`Cn1cc(-n2cnc3c(NCc4nc5cc(Cl)c(Cl)cc5[nH]4)nc(N4CCOCC4)nc32)cn1` had a % of control in [1] of 23.3%.

As for `N#Cc1cccc(-c2c[nH]c3ncnc(N4CCOCC4)c23)c1`, in assay [2], the % of control turned out to be 83%.

`CCN(CC)CCCCNc1ncc2cc(-c3cc(OC)cc(OC)c3)c(NC(=O)NC(C)(C)C)nc2n1` showed a % of control in assay [3] of 21%.

Regarding `C=CC(=O)Nc1cc(-n2c(=O)ccc3cnc4ccc(-c5ccc(NS(C)(=O)=O)cc5)cc4c32)ccc1C`, the % of control amounted to 26% in assay [4] (at 1 µM), 96% in assay [4] (at 10 µM), 100% in assay [5] (at 1 µM) and 100% in assay [5] (at 10 µM).

In the case of `C=CC(=O)Nc1cccc(C(=O)Nc2ccc(Nc3cc(-c4[nH]c(SC)nc4C)ccn3)cc2)c1`, the figures for the % of control in assay [6] (at 1 µM) and in [6] (at 5 µM) were 76% and 37%, respectively.

In [7], `COc1cc(Nc2nc(C)cc(-c3cnn4nc(OC)ccc34)n2)cc(C(F)(F)F)c1` gave a % of control of 87%.

As to `Cc1ccc(-c2ccc3c(ccc4sc5c(c43)NC[C@@H](C)NC5=O)n2)cn1`, the % of inhibition in assay [8] was 17%.

`CN(C)CCOc1ccc(-c2nc(-c3ccncc3)c(-c3ccc4c(c3)CC/C4=N\O)[nH]2)cc1`: the % of control in assay [9] stood at 79%.

As for `COc1cc(N(C)c2ccnc3ccc(C(F)(F)F)cc23)cc(OC)c1OC`, the % binding in assay [10] stood at 86%.
